{"source": "ChEMBL document CHEMBL1201862", "about": "“PubChem BioAssay data set” (2004)", "key": {"[1]": {"target": "T1, Type-1 angiotensin II receptor (Homo sapiens, UniProt P30556)", "T1 sequence (P30556 whole entry)": "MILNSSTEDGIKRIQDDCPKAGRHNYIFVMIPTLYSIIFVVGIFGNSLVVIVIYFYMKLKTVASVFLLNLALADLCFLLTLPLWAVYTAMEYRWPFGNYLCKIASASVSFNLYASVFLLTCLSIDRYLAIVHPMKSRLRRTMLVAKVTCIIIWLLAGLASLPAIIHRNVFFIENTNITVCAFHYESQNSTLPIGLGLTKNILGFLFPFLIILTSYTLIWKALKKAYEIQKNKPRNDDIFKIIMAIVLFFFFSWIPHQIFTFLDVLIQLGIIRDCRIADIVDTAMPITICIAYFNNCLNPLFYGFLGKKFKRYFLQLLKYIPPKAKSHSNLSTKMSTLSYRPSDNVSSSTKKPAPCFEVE", "experiment": "agonist activity at AGTR1 – cell-based, uHTS hits, selectivity assay for APJ receptor agonist project, dose response (AID 488865);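 further: beta-arrestin recruitment to AT1 measured by enzyme fragment complementation luminescence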", "type": "functional"}, "[2]": {"target": "T2, Alkaline phosphatase, tissue-nonspecific isozyme (Homo sapiens, UniProt P05186)", "T2 sequence (P05186 whole entry)": "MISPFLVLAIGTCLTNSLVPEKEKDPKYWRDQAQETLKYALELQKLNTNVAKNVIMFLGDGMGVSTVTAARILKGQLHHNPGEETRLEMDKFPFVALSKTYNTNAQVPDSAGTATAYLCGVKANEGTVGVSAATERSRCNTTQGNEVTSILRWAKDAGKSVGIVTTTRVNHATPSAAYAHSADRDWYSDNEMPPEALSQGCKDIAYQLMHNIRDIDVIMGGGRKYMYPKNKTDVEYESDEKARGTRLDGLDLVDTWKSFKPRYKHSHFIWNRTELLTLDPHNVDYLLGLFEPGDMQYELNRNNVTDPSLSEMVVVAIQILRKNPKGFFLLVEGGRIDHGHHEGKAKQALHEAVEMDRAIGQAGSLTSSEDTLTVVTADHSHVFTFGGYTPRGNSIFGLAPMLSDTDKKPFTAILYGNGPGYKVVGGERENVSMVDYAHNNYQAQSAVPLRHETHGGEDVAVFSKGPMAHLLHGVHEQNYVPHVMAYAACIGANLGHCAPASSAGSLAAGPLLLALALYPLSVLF", "experiment": "potency against alkaline phosphatase TNAP – biochemical, luminescent, dose response, SAR follow-up (AID 1056)"}, "[3]": {"target": "Alkaline phosphatase, placental type (Homo sapiens, UniProt P05187)", "experiment": "human placental alkaline phosphatase inhibition – biochemical, luminescence, confirmation (AID 1512)", "type": "functional"}, "[4]": {"experiment": "HEK-293T viability loss after treatment – luminescence, T-cell screen hits, cytotoxicity control for TCR NF-kB inhibitor project, dose response (AID 489026);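 further: cells exposed to compound about 14 hours before the viability readout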", "type": "functional, cell-based"}, "[5]": {"experiment": "alpha-synuclein stem-loop luciferase translation blockers – H4 neuroglioma cells, luminescence, confirmation (AID 1988)", "type": "functional, cell-based"}, "[6]": {"experiment": "Luminescence Cell-Based Dose Confirmation HTS to Identify Inhibitors of 5'UTR Stem-Loop Driven Alpha-Synuclein mRNA Translation in H4 Neuroglioblastoma Cells. [Related pubchem assays: 1827 (Project Summary), 1813 (Primary HTS)]", "type": "functional"}, "[7]": {"experiment": "Luminescence Cell-Based Dose Response HTS to Identify Inhibitors of 5'UTR Stem-Loop Driven Prion Protein mRNA Translation in H4 Neuroglioblastoma Cells. [Related pubchem assays: 1827 (Project Summary), 1813 (Primary HTS)]", "type": "functional"}, "[8]": {"experiment": "Luminescence Cell-Based Dose Response HTS to Identify Activators of Luciferase Translation or Activity in H4-C Neuroglioblastoma Cells. [Related pubchem assays: 1829 (Project Summary), 1814 (Primary HTS)]", "type": "functional"}, "[9]": {"experiment": "Luminescence Cell-Based Dose Response HTS to Identify Inhibitors of Luciferase Translation or Activity in H4-C Neuroglioblastoma Cells. [Related pubchem assays: 1813 (Primary HTS), 1827 (Project Summary)]", "type": "functional"}, "[10]": {"experiment": "luciferase reporter signal suppression in cells – H4 neuroglioma cells, luminescence, dose response (AID 1990)", "type": "functional, cell-based"}, "[11]": {"experiment": "Luminescence Cell-Based Dose HTS Response to Identify Inhibitors of 5'UTR Stem-Loop Driven Prion Protein mRNA Translation in H4-C Neuroglioblastoma Cells. [Related pubchem assays (depositor defined):AID1814, AID1827]", "type": "functional"}, "[12]": {"experiment": "Luminescence Cell-Based Dose Response HTS to Identify Activators of 5'UTR Stem-Loop Driven Prion Protein mRNA Translation in H4-C Neuroglioblastoma Cells. [Related pubchem assays: 1829 (Project Summary), 1814 (Primary HTS)]", "type": "functional"}, "[13]": {"experiment": "Luminescence Cell-Based Dose Retest to Confirm Activators of 5'UTR Stem-Loop Driven Alpha-Synuclein mRNA Translation in H4 Neuroglioblastoma Cells. [Related pubchem assays (depositor defined):AID1813, AID1829]", "type": "functional"}, "[14]": {"target": "T3, Runt-related transcription factor 1/Core-binding factor subunit beta (Homo sapiens, UniProt Q01196+Q13951)", "T3 sequence (Q01196 whole entry, the tested form may be a part)": "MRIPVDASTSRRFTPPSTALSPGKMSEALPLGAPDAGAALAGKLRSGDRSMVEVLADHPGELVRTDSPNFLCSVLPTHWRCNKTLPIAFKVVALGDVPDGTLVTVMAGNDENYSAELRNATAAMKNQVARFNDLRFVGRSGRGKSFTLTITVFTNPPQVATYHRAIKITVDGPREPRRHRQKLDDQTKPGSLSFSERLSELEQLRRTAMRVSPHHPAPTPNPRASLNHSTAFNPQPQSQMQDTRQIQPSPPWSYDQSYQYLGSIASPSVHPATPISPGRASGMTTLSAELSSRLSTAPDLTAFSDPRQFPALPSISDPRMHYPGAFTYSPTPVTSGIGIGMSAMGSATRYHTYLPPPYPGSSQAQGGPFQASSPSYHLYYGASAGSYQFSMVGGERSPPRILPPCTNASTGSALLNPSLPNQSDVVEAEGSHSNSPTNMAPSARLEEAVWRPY", "T3 sequence (Q13951 whole entry, the tested form may be a part)": "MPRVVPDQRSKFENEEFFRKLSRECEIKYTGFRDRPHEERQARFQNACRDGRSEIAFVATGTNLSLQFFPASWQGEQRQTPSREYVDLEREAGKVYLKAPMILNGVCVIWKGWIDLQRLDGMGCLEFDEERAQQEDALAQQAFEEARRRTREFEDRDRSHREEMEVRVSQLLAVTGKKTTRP", "experiment": "disruptors of Runt domain/CBFb-SMMHC interaction – biochemical, FRET, Cerulean-Runt, Venus-CBFb-SMMHC, uHTS, […] (AID 1434)", "type": "protein assay"}, "[15]": {"target": "T4, Voltage-gated N-type calcium channel alpha-1B subunit/Amyloid beta A4 precursor protein-binding family A member 1 (Homo sapiens, UniProt Q00975+Q02410)", "T4 sequence (Q00975 whole entry)": "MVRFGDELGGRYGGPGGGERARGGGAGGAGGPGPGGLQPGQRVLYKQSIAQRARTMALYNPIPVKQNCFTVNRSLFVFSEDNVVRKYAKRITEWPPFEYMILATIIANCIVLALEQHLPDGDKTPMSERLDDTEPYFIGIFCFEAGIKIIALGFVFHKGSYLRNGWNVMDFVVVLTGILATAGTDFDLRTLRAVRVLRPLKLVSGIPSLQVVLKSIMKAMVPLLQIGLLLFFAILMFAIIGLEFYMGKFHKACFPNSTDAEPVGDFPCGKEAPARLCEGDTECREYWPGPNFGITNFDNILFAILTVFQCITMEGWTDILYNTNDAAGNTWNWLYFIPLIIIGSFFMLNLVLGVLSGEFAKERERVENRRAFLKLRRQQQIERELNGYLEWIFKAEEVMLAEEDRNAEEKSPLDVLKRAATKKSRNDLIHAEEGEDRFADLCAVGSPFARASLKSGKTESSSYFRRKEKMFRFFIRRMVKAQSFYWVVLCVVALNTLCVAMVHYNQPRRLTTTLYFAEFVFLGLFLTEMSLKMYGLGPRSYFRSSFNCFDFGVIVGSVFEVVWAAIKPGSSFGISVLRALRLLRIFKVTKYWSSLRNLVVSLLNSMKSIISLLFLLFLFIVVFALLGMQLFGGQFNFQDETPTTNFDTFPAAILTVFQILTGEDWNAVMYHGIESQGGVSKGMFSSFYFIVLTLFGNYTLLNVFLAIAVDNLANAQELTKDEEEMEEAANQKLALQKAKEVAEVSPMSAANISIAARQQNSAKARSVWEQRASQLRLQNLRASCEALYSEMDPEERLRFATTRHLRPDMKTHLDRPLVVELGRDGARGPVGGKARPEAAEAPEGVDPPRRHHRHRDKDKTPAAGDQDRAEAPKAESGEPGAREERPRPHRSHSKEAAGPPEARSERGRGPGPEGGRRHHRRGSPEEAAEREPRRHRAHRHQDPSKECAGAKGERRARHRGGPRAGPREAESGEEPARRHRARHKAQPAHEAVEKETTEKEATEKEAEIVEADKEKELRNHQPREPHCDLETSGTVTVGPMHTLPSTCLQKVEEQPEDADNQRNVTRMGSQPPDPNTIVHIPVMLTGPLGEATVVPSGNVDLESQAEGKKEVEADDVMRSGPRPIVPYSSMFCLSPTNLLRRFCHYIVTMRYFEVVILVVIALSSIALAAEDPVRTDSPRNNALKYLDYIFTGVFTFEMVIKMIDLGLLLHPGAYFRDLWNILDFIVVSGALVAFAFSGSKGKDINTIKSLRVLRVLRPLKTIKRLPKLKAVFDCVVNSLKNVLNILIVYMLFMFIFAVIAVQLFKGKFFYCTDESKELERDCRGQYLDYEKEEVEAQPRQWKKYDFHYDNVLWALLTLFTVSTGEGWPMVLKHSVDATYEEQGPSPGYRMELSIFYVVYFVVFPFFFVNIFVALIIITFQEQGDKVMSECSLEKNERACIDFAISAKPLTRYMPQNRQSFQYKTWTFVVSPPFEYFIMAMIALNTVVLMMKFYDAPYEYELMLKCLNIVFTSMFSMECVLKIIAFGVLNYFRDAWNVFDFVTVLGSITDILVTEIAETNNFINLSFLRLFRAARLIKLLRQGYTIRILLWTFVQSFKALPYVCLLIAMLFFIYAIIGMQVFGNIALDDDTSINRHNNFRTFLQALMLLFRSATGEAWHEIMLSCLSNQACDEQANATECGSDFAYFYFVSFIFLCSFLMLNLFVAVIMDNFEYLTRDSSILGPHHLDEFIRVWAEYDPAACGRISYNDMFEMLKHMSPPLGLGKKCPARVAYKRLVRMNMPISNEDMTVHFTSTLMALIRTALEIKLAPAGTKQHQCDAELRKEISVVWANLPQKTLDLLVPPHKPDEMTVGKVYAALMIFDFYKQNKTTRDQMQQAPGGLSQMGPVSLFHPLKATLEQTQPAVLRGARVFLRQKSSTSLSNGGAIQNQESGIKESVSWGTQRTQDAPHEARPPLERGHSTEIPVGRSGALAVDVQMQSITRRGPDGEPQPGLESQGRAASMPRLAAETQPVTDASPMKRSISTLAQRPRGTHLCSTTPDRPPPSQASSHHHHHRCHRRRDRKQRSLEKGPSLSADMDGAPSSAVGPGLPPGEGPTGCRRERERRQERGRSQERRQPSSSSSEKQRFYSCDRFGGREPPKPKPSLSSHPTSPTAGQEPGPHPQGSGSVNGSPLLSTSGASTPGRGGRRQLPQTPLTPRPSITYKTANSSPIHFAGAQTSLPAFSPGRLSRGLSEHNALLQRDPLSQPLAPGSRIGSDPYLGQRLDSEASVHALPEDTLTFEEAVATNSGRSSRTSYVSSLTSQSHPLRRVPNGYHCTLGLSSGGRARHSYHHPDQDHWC", "T4 sequence (Q02410 whole entry)": "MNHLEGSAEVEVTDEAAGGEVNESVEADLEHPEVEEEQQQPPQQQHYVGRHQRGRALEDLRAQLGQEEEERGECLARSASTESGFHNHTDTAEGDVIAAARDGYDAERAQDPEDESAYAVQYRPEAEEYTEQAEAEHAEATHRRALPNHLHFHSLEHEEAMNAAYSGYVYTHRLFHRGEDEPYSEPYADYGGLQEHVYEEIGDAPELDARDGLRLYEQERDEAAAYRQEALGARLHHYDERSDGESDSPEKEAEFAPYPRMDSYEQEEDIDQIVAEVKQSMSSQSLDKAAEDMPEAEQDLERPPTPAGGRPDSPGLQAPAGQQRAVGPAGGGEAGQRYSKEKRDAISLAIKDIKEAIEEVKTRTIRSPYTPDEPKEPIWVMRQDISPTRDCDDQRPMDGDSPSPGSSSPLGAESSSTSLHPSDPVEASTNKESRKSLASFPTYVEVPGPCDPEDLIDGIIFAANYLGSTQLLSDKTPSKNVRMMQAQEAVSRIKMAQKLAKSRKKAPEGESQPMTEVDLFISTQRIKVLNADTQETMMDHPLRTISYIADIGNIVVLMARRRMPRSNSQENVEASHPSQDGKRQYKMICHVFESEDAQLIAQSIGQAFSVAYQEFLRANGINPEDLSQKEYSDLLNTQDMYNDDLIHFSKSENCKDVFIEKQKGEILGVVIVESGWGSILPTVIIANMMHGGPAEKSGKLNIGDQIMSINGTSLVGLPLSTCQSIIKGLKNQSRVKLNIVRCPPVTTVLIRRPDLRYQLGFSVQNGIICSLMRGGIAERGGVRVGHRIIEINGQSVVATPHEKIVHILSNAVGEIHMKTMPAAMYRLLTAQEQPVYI", "experiment": "disruptors of Mint-PDZ/N-type channel peptide interaction – biochemical, HTRF, SAR follow-up (AID 2489)", "type": "functional"}, "[16]": {"target": "T5, Probable nicotinate-nucleotide adenylyltransferase (Staphylococcus aureus (strain N315), UniProt P65502)", "T5 sequence (P65502 whole entry)": "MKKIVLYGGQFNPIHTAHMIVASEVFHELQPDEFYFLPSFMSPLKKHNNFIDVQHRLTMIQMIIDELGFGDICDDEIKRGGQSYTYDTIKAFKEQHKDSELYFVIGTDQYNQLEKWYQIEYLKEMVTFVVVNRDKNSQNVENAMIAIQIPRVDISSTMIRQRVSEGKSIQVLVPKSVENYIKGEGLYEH", "type": "functional, Staphylococcus aureus subsp. aureus N315", "conditions": "read-out: IC50_Mean"}, "[17]": {"target": "T3, Runt-related transcription factor 1/Core-binding factor subunit beta", "experiment": "Runt domain/CBFb-SMMHC interaction disruptors – biochemical, TR-FRET (AID 1438)", "type": "protein assay"}, "[18]": {"target": "T4, Voltage-gated N-type calcium channel alpha-1B subunit/Amyloid beta A4 precursor protein-binding family A member 1", "type": "protein assay"}, "[19]": {"target": "T5, Probable nicotinate-nucleotide adenylyltransferase", "type": "functional, Staphylococcus aureus subsp. aureus N315"}, "[20]": {"target": "Induced myeloid leukemia cell differentiation protein Mcl-1 (Homo sapiens, UniProt Q07820)", "sequence (Q07820 whole entry)": "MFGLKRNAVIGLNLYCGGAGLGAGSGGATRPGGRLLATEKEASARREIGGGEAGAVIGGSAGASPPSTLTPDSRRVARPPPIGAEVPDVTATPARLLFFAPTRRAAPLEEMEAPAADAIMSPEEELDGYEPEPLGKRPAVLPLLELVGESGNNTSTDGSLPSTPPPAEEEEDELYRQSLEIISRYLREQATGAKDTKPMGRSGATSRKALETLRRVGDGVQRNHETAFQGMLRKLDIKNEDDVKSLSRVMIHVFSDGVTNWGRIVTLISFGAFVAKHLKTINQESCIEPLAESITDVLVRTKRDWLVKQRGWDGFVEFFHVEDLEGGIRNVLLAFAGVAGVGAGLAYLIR", "type": "functional"}, "NS3": {"target": "NS3 (Hepatitis C virus, UniProt A3EZJ3)", "sequence (A3EZJ3 whole entry)": "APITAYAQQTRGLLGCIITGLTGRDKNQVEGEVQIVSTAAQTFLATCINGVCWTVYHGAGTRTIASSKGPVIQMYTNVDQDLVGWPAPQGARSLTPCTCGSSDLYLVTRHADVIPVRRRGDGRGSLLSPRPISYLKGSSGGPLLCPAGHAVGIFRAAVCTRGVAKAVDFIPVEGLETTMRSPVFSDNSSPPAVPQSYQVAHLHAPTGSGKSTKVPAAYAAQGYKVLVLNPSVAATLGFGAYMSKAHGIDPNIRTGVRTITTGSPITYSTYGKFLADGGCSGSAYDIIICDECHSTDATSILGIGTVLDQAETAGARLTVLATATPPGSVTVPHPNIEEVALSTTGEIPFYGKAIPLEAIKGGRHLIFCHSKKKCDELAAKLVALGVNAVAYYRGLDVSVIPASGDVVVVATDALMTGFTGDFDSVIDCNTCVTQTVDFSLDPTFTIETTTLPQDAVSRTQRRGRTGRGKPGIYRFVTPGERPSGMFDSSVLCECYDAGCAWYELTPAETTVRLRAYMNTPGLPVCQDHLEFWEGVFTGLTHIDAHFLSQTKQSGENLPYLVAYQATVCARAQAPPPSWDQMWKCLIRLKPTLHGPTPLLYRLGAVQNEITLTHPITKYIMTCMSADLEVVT", "experiment": "PubChem AID 2173", "set-up": "species or system Hepacivirus hominis"}, "[21]": {"target": "T4, Voltage-gated N-type calcium channel alpha-1B subunit/Amyloid beta A4 precursor protein-binding family A member 1", "type": "protein assay", "remark": "listed apart in the source"}}, "note": "Active and inactive are the calls of the source.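 Wherever IC50 Mean is given: confirmatory dose-response retesting of NadD inhibitor hits first found in an ultra-high-throughput screen.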"}
{"smiles": "CSc1cccc(NC(=S)NC(=O)CCc2ccccc2)c1", "values": [{"measurement": "EC50", "setting": "[1]", "value": "> 100 µM (inactive)"}]}
{"smiles": "O=C(NC1(C(F)(F)F)Oc2ccccc2O1)Sc1ccccc1", "values": [{"measurement": "IC50", "setting": "[2]", "value": "> 100 µM (inactive)"}, {"measurement": "IC50", "setting": "[3]", "value": "92.3 µM (active)"}]}
{"smiles": "CCOC(=O)c1[nH]c(C)c(C(=O)c2cc(F)ccc2F)c1C", "values": [{"measurement": "IC50", "setting": "[4]", "value": "> 80 µM (inactive)"}, {"measurement": "EC50", "setting": "[5]", "value": "0.2 µM (active)"}, {"measurement": "EC50", "setting": "[6]", "value": "1.66 µM (active)"}, {"measurement": "EC50", "setting": "[7]", "value": "11.5 µM (active)"}, {"measurement": "EC50", "setting": "[8]", "value": "0.557 µM (inconclusive)"}, {"measurement": "EC50", "setting": "[9]", "value": "0.557 µM (active)"}, {"measurement": "EC50", "setting": "[10]", "value": "10.6 µM (active)"}, {"measurement": "EC50", "setting": "[11]", "value": "0.241 µM (active)"}, {"measurement": "EC50", "setting": "[12]", "value": "0.241 µM (inconclusive)"}, {"measurement": "EC50", "setting": "[13]", "value": "1.66 µM (inconclusive)"}]}
{"smiles": "O=C(COC(=O)c1c2c(nc3ccccc13)/C(=C/c1ccco1)CC2)NC1CCCC1", "values": [{"measurement": "IC50", "setting": "[14]", "value": "> 100 µM (inactive)"}, {"measurement": "IC50", "setting": "[15]", "value": "3.75 µM (active)"}, {"measurement": "IC50", "setting": "[16]", "value": "15 µM (active)"}, {"measurement": "IC50", "setting": "[17]", "value": "10.4 µM (active)"}, {"measurement": "IC50", "setting": "[18]", "value": "5.81 µM (active)"}, {"measurement": "IC50", "setting": "[19]", "value": "6.95 µM (active)"}, {"measurement": "IC50", "setting": "[20]", "value": "6.5 µM (active)"}, {"measurement": "IC50", "setting": "NS3", "value": "12.6 µM (not active)"}, {"measurement": "IC50", "setting": "[21]", "value": "9.12 µM (active)"}]}
